pKi: −log10 of the molar value.
Assays:
[1] = target: Serotonin-5-HT1D; assay: In vitro receptor affinity, Serotonin-5-HT1D; type: binding; conditions: bovine, radioligand [3H]-serotonin; read-out: K1 (in vitro receptor affinity)
Method: (§1) ln vitro affinity for neurotransmitter receptors: The binding data collected below were either obtained by CE REP (128, rue Danton, 92500 Rueil-Malmaison, France) or at Solvay Pharmaceuticals B.V. (C. J. van Houtenlaan 36, 1381 CP Weesp, The Netherlands), using well documented standard procedures. The affinities for dopamine-D2 and 5-HT1A receptors for instance, were measured as described by Creese (1997) and Gozlan (1983) respectively.

[2] = target: Muscarine-M1 (Homo sapiens, UniProt P11229); assay: In vitro receptor affinity, Muscarine-M1; type: binding; conditions: radioligand [3H]-pirenzepine, read-out: K1 (in vitro receptor affinity)
Method: as §1

[3] = target: Muscarine-M4 (Homo sapiens, UniProt P08173); assay: In vitro receptor affinity, Muscarine-M4; type: binding; conditions: radioligand [3H]-4-DAMP, read-out: K1 (in vitro receptor affinity)
Method: as §1

[4] = target: μ-opiate (Rattus norvegicus, UniProt P33535); assay: In vitro receptor affinity, μ-opiate; type: binding; conditions: radioligand [3H]-DAMGO, read-out: K1 (in vitro receptor affinity)
Method: as §1

[5] = Volume of distribution measured in mice; type: in vivo; conditions: for VD in liters per kilograms: measured in mice; for Vd: plasma, calculated for an average person weighing 70 kg from mouse VD
Method: The volume of distribution (VD), also known as the ‘apparent volume of distribution’, is a pharmacological term used to quantify the distribution of a drug throughout the body after oral or parenteral dosing. It is defined as the volume in which the amount of drug would need to be uniformly distributed in to produce the observed concentration (Widmark, 1919).
The volume of distribution of SLV313 and its pyridine N-oxide was measured in mice, using the standard procedure well known in the art:
The volume of distribution is not a physiological volume, but rather the ratio between the total amount of drug in the body and its concentration in plasma. It is generally accepted that the volume of distribution is more or less the same across species, making it a parameter that, when measured in laboratory animals, has a high predictive value towards man.

[6] = target: Muscarine-M5 (Homo sapiens, UniProt P08912); assay: In vitro receptor affinity, Muscarine-M5; type: binding; conditions: radioligand [3H]-4-DAMP, read-out: K1 (in vitro receptor affinity)
Method: as §1

[7] = target: Histamine-H1 (Homo sapiens, UniProt P35367); assay: In vitro receptor affinity, Histamine-H1; type: binding; conditions: radioligand [3H]-pyrilamine, read-out: K1 (in vitro receptor affinity)
Method: as §1

[8] = target: Serotonin-5-HT7 (Homo sapiens, UniProt P34969); assay: In vitro receptor affinity, Serotonin-5-HT7; type: binding; conditions: radioligand [3H]-LSD, read-out: K1 (in vitro receptor affinity)
Method: as §1

[9] = target: Serotonin-5-HT6 (Homo sapiens, UniProt P50406); assay: In vitro receptor affinity, Serotonin-5-HT6; type: binding; conditions: radioligand [3H]-LSD, read-out: K1 (in vitro receptor affinity)
Method: as §1

[10] = target: α2-adrenergic; assay: In vitro receptor affinity, α2-adrenergic; type: binding; conditions: rat, radioligand [3H]-RX 821002; read-out: K1 (in vitro receptor affinity)
Method: as §1

[11] = tested on: Lower lip retraction; assay: Lower lip retraction; type: in vivo; conditions: po; read-out: Lower Lip Retraction: ED50
Method: For oral (p.o.) administration: to the desired quantity (0.5-5 mg) of the solid test compound in a glass tube, some glass beads were added and the solid was milled by vortexing for 2 minutes. After addition of 1 ml of a solution of 1% methylcellulose in water and 2% (v/v) of Poloxamer 188 (Lutrol F68), the compound was suspended by vortexing for 10 minutes. The pH was adjusted to 7. Remaining particles in the suspension were further suspended by using an ultrasonic bath.
Lower lip retraction, an in vivo animal model for serotonin 5-HT1A receptor agonistic activity, was measured according to the method described by Berendsen (1989); Apomorphine-induced climbing behaviour in mice, an in vivo animal model for dopamine-D2 receptor antagonistic activity, was determined according to the method described by Costall (1978).

[12] = target: Serotonin-5-HT3 (Rattus norvegicus, UniProt P35563); assay: In vitro receptor affinity, Serotonin-5-HT3; type: binding; conditions: radioligand [3H]-GR 38032F, read-out: K1 (in vitro receptor affinity)
Method: as §1

[13] = target: Serotonin-5-HT2C (Homo sapiens, UniProt P28335); assay: In vitro receptor affinity, Serotonin-5-HT2C; type: binding; conditions: radioligand [125I]-DOI, read-out: K1 (in vitro receptor affinity)
Method: as §1

[14] = Partition coefficient, experimental (Log P); type: physicochemical; conditions: at pH 7.0
[15] = target: T1, Serotonin-5-HT1A (Homo sapiens, UniProt P08908); assay: In vitro receptor affinity, Serotonin-5-HT1A; type: binding; conditions: radioligand [3H]-8-OH-DPAT, read-out: K1 (in vitro receptor affinity)
T1 sequence (P08908 1-422): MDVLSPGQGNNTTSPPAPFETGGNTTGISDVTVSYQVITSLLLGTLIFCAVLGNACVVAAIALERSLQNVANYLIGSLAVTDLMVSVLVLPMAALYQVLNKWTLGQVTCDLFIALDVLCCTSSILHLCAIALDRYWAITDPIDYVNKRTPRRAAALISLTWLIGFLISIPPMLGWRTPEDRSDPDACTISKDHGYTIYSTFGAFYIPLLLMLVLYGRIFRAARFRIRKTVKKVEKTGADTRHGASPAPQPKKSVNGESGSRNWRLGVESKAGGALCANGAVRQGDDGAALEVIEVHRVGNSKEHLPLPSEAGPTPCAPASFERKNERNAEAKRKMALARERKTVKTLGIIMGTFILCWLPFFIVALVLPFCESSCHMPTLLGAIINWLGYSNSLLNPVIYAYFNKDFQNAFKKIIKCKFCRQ
Method: as §1

[16] = target: α1-adrenergic; assay: In vitro receptor affinity, α1-adrenergic; type: binding; conditions: rat, radioligand [3H]-prazosin; read-out: K1 (in vitro receptor affinity)
Method: as §1

[17] = target: T2, human D2 receptors (Homo sapiens, UniProt P14416); assay: In vitro functional antagonism at D2 receptors, adenylate cyclase in CHO cell-lines; type: cell-based; conditions: CHO cell-lines expressing cloned receptor; read-out: Antagonism human D2 receptors, pA2 (converted)
T2 construct: expressed in transfected cells; host or cells: CHO
Method: In vitro (ant)agonistic activity at human D2 receptors and 5-HT1A receptors was measured according to the methods described by Solomon (1974) and Weiss (1985) respectively, on the formation of adenylate cyclase in CHO cell-lines expressing these cloned receptors.

[18] = target: 5-HT reuptake (Homo sapiens, UniProt P31645); assay: In vitro receptor affinity, 5-HT reuptake; type: binding; conditions: radioligand [3H]-paroxetine, read-out: K1 (in vitro receptor affinity)
Method: as §1

[19] = target: Serotonin-5-HT2A (Homo sapiens, UniProt P28223); assay: In vitro receptor affinity, Serotonin-5-HT2A; type: binding; conditions: radioligand [3H]-ketanserin, read-out: K1 (in vitro receptor affinity)
Method: as §1

Serotonin-5-HT3, sequence (P35563 24-483): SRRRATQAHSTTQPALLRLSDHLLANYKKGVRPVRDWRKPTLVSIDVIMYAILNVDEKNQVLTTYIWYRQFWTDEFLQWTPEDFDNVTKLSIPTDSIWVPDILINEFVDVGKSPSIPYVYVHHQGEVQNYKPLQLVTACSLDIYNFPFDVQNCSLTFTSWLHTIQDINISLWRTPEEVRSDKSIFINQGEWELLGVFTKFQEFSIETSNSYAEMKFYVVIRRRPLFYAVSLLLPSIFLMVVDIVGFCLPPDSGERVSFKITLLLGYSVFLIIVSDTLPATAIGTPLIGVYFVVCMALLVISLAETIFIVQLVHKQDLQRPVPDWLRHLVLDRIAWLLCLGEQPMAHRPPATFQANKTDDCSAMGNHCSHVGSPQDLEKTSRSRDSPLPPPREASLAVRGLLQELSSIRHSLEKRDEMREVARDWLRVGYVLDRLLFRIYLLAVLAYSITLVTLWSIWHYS
Muscarine-M4, sequence (P08173 whole entry): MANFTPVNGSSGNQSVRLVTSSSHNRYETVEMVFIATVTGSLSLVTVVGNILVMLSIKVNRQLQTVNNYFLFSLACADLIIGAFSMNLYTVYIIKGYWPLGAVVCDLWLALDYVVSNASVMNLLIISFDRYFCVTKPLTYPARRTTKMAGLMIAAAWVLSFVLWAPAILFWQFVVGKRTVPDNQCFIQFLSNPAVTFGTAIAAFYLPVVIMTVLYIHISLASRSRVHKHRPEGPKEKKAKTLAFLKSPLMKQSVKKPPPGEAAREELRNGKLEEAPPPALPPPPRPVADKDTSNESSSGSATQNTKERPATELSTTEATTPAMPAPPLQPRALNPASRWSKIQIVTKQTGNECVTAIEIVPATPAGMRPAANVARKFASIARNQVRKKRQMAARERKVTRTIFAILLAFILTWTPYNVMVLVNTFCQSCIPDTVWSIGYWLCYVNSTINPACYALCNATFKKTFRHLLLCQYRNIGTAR
5-HT reuptake, sequence (P31645 whole entry): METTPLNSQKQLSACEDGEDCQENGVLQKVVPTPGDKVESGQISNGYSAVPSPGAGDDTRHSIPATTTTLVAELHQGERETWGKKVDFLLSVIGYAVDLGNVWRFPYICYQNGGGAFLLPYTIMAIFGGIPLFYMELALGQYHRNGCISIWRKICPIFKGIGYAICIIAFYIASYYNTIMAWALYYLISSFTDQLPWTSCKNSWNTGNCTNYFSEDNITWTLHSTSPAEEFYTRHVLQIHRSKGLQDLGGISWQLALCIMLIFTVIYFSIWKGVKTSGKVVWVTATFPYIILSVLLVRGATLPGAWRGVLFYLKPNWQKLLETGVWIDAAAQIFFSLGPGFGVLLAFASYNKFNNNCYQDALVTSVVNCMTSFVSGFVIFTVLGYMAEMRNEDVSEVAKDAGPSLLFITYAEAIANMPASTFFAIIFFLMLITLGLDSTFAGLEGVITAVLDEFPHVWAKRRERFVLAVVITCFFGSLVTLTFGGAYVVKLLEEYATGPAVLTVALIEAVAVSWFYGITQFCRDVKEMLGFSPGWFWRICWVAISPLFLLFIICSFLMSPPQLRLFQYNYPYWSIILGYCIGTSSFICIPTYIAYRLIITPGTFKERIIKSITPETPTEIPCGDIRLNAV
Histamine-H1, sequence (P35367 whole entry): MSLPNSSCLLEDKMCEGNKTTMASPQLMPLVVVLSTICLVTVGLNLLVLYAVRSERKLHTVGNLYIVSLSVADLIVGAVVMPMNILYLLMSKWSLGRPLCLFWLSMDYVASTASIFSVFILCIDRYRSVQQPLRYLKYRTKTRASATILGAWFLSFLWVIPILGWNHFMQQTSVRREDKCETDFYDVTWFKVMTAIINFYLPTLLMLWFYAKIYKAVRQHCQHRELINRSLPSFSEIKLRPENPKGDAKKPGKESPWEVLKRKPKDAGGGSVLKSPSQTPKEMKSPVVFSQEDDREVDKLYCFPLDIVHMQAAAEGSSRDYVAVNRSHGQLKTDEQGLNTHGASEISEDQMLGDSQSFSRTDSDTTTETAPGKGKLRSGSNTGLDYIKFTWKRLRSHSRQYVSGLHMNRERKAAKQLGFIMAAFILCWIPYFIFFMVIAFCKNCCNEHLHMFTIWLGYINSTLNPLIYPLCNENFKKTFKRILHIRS
Muscarine-M5, sequence (P08912 whole entry): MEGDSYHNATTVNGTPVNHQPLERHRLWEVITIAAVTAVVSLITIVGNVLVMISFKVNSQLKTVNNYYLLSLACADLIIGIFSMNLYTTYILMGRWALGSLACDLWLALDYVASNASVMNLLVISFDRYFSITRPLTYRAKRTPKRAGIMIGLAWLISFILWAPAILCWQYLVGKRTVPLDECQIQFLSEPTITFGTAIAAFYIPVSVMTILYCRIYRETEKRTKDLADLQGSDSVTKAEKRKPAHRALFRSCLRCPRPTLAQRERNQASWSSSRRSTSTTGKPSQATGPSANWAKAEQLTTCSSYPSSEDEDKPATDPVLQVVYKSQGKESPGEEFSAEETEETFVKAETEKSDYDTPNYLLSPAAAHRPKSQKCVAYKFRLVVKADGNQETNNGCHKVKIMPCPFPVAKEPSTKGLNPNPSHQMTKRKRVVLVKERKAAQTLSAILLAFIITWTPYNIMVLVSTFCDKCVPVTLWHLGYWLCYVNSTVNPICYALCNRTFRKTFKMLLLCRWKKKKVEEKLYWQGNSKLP
T2 sequence (P14416 whole entry): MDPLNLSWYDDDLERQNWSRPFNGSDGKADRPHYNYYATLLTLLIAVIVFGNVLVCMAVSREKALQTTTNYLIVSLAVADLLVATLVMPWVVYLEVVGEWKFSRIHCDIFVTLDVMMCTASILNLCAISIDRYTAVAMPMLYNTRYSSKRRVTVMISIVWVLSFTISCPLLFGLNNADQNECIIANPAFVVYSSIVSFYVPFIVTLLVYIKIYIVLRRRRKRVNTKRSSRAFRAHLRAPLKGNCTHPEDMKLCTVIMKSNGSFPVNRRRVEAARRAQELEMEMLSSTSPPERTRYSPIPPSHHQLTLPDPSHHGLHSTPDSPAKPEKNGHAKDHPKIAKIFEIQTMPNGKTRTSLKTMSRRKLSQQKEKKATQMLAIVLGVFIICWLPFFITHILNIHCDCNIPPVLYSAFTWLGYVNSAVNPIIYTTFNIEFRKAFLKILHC
μ-opiate, sequence (P33535 whole entry): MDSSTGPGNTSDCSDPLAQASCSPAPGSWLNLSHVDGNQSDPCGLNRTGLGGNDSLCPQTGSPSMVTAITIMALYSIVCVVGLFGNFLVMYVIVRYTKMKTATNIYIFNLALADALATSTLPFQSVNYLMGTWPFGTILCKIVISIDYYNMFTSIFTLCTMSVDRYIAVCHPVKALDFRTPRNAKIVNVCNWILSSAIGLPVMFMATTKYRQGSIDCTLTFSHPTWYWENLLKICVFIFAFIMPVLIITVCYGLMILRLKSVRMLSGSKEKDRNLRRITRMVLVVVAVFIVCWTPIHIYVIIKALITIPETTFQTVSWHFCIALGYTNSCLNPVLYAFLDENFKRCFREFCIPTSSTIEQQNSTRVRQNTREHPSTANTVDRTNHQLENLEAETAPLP
Serotonin-5-HT7, sequence (P34969 whole entry): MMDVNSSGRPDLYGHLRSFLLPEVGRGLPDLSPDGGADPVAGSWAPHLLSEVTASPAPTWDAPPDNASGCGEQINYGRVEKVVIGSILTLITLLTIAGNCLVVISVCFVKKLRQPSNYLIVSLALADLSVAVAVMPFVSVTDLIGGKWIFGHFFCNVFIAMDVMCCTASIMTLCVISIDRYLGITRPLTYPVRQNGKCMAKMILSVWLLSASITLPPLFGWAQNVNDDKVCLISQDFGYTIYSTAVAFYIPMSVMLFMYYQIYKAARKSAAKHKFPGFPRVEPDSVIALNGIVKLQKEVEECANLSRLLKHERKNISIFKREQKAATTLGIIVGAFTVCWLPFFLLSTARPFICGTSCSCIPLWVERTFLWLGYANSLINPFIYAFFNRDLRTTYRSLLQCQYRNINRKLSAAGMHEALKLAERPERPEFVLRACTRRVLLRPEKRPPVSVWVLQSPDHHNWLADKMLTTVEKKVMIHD
Serotonin-5-HT6, sequence (P50406 whole entry): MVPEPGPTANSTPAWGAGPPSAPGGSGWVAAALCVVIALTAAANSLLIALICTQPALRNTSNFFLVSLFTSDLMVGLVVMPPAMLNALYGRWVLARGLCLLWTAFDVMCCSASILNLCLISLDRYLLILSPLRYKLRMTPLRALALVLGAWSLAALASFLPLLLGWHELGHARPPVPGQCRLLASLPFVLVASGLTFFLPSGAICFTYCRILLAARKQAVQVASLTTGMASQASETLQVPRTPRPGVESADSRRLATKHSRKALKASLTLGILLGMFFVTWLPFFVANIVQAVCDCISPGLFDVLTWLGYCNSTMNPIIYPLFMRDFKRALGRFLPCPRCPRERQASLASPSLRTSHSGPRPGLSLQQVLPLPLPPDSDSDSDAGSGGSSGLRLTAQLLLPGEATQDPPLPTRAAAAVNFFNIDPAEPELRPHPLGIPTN
Serotonin-5-HT2A, sequence (P28223 whole entry): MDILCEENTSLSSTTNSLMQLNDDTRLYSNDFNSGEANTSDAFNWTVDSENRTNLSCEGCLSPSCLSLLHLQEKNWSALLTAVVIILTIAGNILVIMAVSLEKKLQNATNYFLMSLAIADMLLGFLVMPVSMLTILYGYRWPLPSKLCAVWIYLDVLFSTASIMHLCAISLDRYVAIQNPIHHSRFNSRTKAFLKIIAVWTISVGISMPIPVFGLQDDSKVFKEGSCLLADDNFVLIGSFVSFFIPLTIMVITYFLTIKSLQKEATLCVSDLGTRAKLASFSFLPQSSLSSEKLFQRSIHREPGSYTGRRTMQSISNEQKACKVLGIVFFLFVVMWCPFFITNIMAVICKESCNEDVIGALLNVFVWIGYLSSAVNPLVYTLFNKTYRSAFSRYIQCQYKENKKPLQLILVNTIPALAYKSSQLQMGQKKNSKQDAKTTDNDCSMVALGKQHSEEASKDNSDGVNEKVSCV

SMILES | pKi [1] | pKi [2] | pKi [3] | pKi [4] | VD in liters per kilograms [5] [liters per kilograms] | Vd [5] [L] | pKi [6] | pKi [7] | pKi [8] | pKi [9] | pKi [10] | ED50 [11] [mg/kg] | pKi [12] | pKi [13] | logP [14] | pKi [15] | pKi [16] | Kb [17] [µM] | pKi [18] | pKi [19]
[O-][n+]1cc(CN2CCN(c3cccc4c3OCCO4)CC2)cc(-c2ccc(F)cc2)c1 [pyridine N-oxide, 1-(2,3-dihydro-1,4-benzodioxin-5-yl)-4-[[5-(4-fluorophenyl)-1-oxido-3-pyridinyl]methyl]-piperazine] | 5.40 | < 5.00 | < 5.00 | 5.49 | 1 | 70 | < 5.00 | < 5.00 | 7.00 | < 5.00 | 6.20 | 3 | < 5.00 | < 5.00 | 2.6 | 9.40 | 6.00 | 0.000631 | 6.49 | 6.30
Fc1ccc(-c2cncc(CN3CCN(c4cccc5c4OCCO5)CC3)c2)cc1 [SLV313, 3-[[4-(2,3-dihydro-1,4-benzodioxin-5-yl)-1-piperazinyl]methyl]-5-(4-fluorophenyl)pyridine, reference compound] | 4.89 | < 5.00 | < 6.00 | 5.10 | 5 | 350 | < 6.00 | < 6.00 | 7.20 | < 6.00 | < 6.00 | 2.3 | < 6.00 | < 6.00 | 3.6 | 9.10 | 6.30 | 0.000501 | < 6.00 | 6.60

— patent US20070275977A1, “N-OXIDES OF PYRIDYLMETHYL -PIPERAZINE AND -PIPERIDINE DERIVATIVES” (priority 2006, published 2007)
